Results reported in patent US20230302150A1, “ANTIBODY-TLR AGONIST CONJUGATES, METHODS AND USES THEREOF” (Ambrx, Inc., priority 2020, published 2023).
Like-named read-outs stand apart in the source and are kept apart here. Blank lines part the entries; values can stand above or below the compound they belong to.

Biological target: T1, hTLR7 (Homo sapiens, UniProt Q9NYK1)
T1 construct: expressed in transfected cells; host or cells: HEK-Blue hTLR7 reporter cell line
T1 sequence (Q9NYK1 27-1049): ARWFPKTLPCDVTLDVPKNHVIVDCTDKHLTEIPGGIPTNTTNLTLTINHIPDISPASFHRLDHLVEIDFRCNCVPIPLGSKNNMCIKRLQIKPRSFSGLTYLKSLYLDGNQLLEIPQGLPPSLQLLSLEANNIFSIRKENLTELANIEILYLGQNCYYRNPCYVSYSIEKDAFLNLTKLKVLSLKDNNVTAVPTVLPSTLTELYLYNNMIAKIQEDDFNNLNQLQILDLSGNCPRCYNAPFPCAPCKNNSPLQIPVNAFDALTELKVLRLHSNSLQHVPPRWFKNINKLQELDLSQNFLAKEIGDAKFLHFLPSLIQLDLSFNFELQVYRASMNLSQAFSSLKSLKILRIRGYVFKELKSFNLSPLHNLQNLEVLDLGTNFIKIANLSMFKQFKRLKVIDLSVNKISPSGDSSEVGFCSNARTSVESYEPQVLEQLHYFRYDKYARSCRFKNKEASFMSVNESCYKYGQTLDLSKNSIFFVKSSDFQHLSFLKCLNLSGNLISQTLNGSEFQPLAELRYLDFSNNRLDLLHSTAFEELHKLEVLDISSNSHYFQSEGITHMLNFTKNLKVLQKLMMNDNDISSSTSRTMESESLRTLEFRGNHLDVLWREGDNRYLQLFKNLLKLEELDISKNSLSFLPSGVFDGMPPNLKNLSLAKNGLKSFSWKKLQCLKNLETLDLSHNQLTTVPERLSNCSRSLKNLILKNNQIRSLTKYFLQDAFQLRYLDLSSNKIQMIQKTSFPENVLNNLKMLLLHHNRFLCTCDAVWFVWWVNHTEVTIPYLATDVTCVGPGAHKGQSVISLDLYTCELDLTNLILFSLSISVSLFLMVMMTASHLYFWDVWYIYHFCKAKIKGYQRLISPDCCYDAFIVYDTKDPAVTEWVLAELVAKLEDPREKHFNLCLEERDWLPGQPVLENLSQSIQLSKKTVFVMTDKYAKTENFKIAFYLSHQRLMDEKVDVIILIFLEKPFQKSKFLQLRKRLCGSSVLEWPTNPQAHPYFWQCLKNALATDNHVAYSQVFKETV
Test: HEK-Blue hTLR7 reporter assay (NF-kB-induced SEAP, Quanti-Blue)
Format: cell-based
Procedure: HEK-Blue™ hTLR7 cells were incubated in HEK-Blue™ Detection medium and stimulated with increasing concentrations of TLR7 or TLR8 or TLR7/8 agonists. […] The EC50 was determined from dose-response curve using Prism Software.

[1] = Table 12, TLR7 agonists attached to a linker, read-out: TLR Agonist Payload + Linkers EC50
[2] = Core 3 compounds, assay not given, read-out: EC50
[3] = Table 19, TLR7, drug-linkers with PEG shielding, read-out: EC50

SMILES: CCCCOc1nc(N)c2[nH]c(=O)n(Cc3ccc(CN4CCCCC4)cc3)c2n1 [AXC-894, 6-amino-2-butoxy-9-(4-(piperidin-1-ylmethyl)benzyl)-7H-purin-8(9H)-one]
EC50 (Table 13, TLR7, read-out: EC50): 1670 nM
EC50 (Table 14, read-out: TLR7 EC50): 2.1 nM
EC50 (text to Table 14, TLR7, read-out: EC50): < 10 nM

SMILES: CCCCOc1nc(N)c2[nH]c(=O)n(Cc3ccc(CN4CCC(CCNC(=O)[C@H](CCCCNC(=O)CON)NC(=O)OCc5ccc(NC(=O)[C@H](C)NC(=O)[C@@H](NC(C)=O)C(C)C)cc5)CC4)cc3)c2n1 [AXC-926, 4-((S)-2-((S)-2-acetamido-3-methylbutanamido)propanamido)benzyl ((S)-1-((2-(1-(4-((6-amino-2-butoxy-8-oxo-7,8-dihydro-9H-purin-9-yl)methyl)benzyl)piperidin-4-yl)ethyl)amino)-6-(2-(aminooxy)acetamido)-1-oxohexan-2-yl)carbamate]
EC50 (Table 18, TLR7, PEG shielding, read-out: EC50): 824 nM

SMILES: CCCCOc1nc(N)c2[nH]c(=O)n(Cc3ccc(CN4CCC(CCNC(=O)CCC(CCC(=O)NCCC5CCN(Cc6ccc(Cn7c(=O)[nH]c8c(N)nc(OCCCC)nc87)cc6)CC5)NC(=O)CON)CC4)cc3)c2n1 [AXC-889, N1,N7-bis(2-(1-(4-((6-amino-2-butoxy-8-oxo-7H-purin-9(8H)-yl)methyl)benzyl)piperidin-4-yl)ethyl)-4-(2-(aminooxy)acetamido)heptanediamide]
EC50 [1]: 697 nM

EC50 [2]: > 10000 nM
SMILES: NCCC1CCN(Cc2ccc(Cn3ccc4c5nc(N)ncc5ccc43)cc2)CC1 [AXC-969, 7-(4-((4-(2-aminoethyl)piperidin-1-yl)methyl)benzyl)-7H-pyrrolo[2,3-h]quinazolin-2-amine]

SMILES: CCCCCC(=O)Nc1nc(OCCCC)nc2c1[nH]c(=O)n2Cc1ccc(CN2CCC(CCN)CC2)cc1 [AXC-963, N-(9-(4-((4-(2-aminoethyl)piperidin-1-yl)methyl)benzyl)-2-butoxy-8-oxo-8,9-dihydro-7H-purin-6-yl)hexanamide]
EC50 [3]: 19.4 nM

SMILES: CCCCOc1nc(NC(=O)CCOCCOCCOC)c2[nH]c(=O)n(Cc3ccc(CN4CCC(CCN)CC4)cc3)c2n1 [AXC-982, N-(9-(4-((4-(2-aminoethyl)piperidin-1-yl)methyl)benzyl)-2-butoxy-8-oxo-8,9-dihydro-7H-purin-6-yl)-3-(2-(2-methoxyethoxy)ethoxy)propanamide]
EC50 [3]: 19.1 nM

EC50 (Table 10, read-out: TLR7 EC50): 260 nM
SMILES: CCCCc1nc2c(N)nc3ccccc3c2n1CCCCNC(=O)c1ccc(F)c(N)c1 [AXC-804, 3-amino-N-(4-(4-amino-2-butyl-1H-imidazo[4,5-c]quinolin-1-yl)butyl)-4-fluorobenzamide]

SMILES: CCCCOc1nc(N)c2[nH]c(=O)n(Cc3ccc(CN4CCC(CCON)CC4)cc3)c2n1 [AXC-979, 6-amino-9-(4-((4-(2-(aminooxy)ethyl)piperidin-1-yl)methyl)benzyl)-2-butoxy-7H-purin-8(9H)-one]
EC50 [3]: 21.7 nM

EC50 (Table 10, read-out: TLR7 EC50): 249 nM
SMILES: CCCCc1nc2c(N)nc3ccccc3c2n1CCCCNC(=O)c1ccc(N)c(OC)c1 [AXC-725, 4-amino-N-(4-(4-amino-2-butyl-1H-imidazo[4,5-c]quinolin-1-yl)butyl)-3-methoxybenzamide]

SMILES: CCCCOc1nc(NC(C)=O)c2[nH]c(=O)n(Cc3ccc(CN4CCC(CCNC(=O)CON)CC4)cc3)c2n1 [AXC-966, N-(2-(1-(4-((6-acetamido-2-butoxy-8-oxo-7,8-dihydro-9H-purin-9-yl)methyl)benzyl)piperidin-4-yl)ethyl)-2-(aminooxy)acetamide]
EC50 [3]: 65.5 nM

EC50 (Table 10, read-out: TLR7 EC50): 213 nM
SMILES: CCCCc1nc2c(N)nc3cccnc3c2n1CCCCNC(=O)c1ccc(N)c(OC)c1 [AXC-736, 4-amino-N-(4-(4-amino-2-butyl-1H-imidazo[4,5-c][1,5]naphthyridin-1-yl)butyl)-3-methoxybenzamide]

SMILES: CCCCOc1nc(N)c2[nH]c(=O)n(Cc3ccc(CN4CCC(CCNC(=O)[C@H](C)N)CC4)cc3)c2n1 [AXC-891, (S)-2-amino-N-(2-(1-(4-((6-amino-2-butoxy-8-oxo-7H-purin-9(8H)-yl)methyl)benzyl)piperidin-4-yl)ethyl)propanamide]
EC50 (Table 13, TLR7, read-out: EC50): 47 nM

EC50 [1]: > 10000 nM
SMILES: CCCCNc1nc(N)c2[nH]c(=O)n(Cc3ccc(NCCN(C)CCNC(=O)CCOCCOCCOCCOCCON)nc3)c2n1 [AXC-869, NH2O-PEG3-Pr-(6-amino-9-((6-(2-((2-aminoethyl)(methyl)amino)ethylamino)pyridin-3-yl)methyl)-2-(butylamino)-7H-purin-8(9H)-one)acetamide]

SMILES: CCCCOc1nc(N)c2[nH]c(=O)n(Cc3ccc(CN4CCC(CCNC(=O)[C@H](CCCCN)NC(=O)CON)CC4)cc3)c2n1 [AXC-947, (S)-6-amino-N-(2-(1-(4-((6-amino-2-butoxy-8-oxo-7,8-dihydro-9H-purin-9-yl)methyl)benzyl)piperidin-4-yl)ethyl)-2-(2-(aminooxy)acetamido)hexanamide]
EC50 [3]: 337 nM

EC50 (Table 10, read-out: TLR7 EC50): 56.1 nM
SMILES: CCCCc1nc2c(N)nc3cccnc3c2n1CCCCNC(=O)c1ccc(N(C)C)cc1 [AXC-743, N-(4-(4-amino-2-butyl-1H-imidazo[4,5-c][1,5]naphthyridin-1-yl)butyl)-4-(dimethylamino)benzamide]

SMILES: CCCCOc1nc(N)c2[nH]c(=O)n(Cc3ccc(CN4CCC(CCNC(=O)[C@H](CCCCNC(=O)CON)NC(=O)CCOCCOCCOCCOCCOCCOCCOCCOCCOCCOCCOCCOCCOCCOCCOCCOCCOCCOCCOCCOCCOCCOCCOCCOCCOCCOCCOCCOCCOCCOCCOCCOCCOCCOCCOCCOCCOC)CC4)cc3)c2n1 [AXC-941, (S)—N-(2-(1-(4-((6-amino-2-butoxy-8-oxo-7,8-dihydro-9H-purin-9-yl)methyl)benzyl)piperidin-4-yl)ethyl)-6-(2-(aminooxy)acetamido)-2-PEG37-amidohexanamide]
EC50 [3]: 699 nM

SMILES: CCCCOc1nc(NC(C)=O)c2[nH]c(=O)n(Cc3ccc(CN4CCC(CCN)CC4)cc3)c2n1 [AXC-964, N-(9-(4-((4-(2-aminoethyl)piperidin-1-yl)methyl)benzyl)-2-butoxy-8-oxo-8,9-dihydro-7H-purin-6-yl)acetamide]
EC50 [3]: 10.3 nM

SMILES: CCCCOc1nc(N)c2[nH]c(=O)n(Cc3ccc(CN4CCC(CCNC(=O)[C@H](CCCCNC(=O)CON)NC(=O)CCOCCOCCOCCOCCOCCOCCOCCOC)CC4)cc3)c2n1 [AXC-937, (S)-2-PEG8-N-(2-(1-(4-((6-amino-2-butoxy-8-oxo-7,8-dihydro-9H-purin-9-yl)methyl)benzyl)piperidin-4-yl)ethyl)-6-(2-(aminooxy)acetamido)hexanamide]
EC50 [3]: 456 nM

EC50 (Table 10, read-out: TLR7 EC50): > 5000 nM
SMILES: CCCCc1nc2c(N)nc3ccccc3c2n1CCCCNC(=O)c1cc(F)c(NC(=O)[C@H](CCCNC(N)=O)NC(=O)[C@@H](NC(=O)CON)C(C)C)c(F)c1 [AXC-801, N-(4-(4-amino-2-butyl-1H-imidazo[4,5-c]quinolin-1-yl)butyl)-4-((S)-2-((S)-2-(2-(aminooxy)acetamido)-3-methylbutanamido)-5-ureidopentanamido)-3,5-difluorobenzamide]

EC50 [2]: > 10000 nM
SMILES: NOCC(=O)NCCC1CCN(Cc2ccc(Cn3ccc4c5nc(N)ncc5ccc43)cc2)CC1 [AXC-970, N-(2-(1-(4-((2-amino-7H-pyrrolo[2,3-h]quinazolin-7-yl)methyl)benzyl)piperidin-4-yl)ethyl)-2-(aminooxy)acetamide]

EC50 (Table 10, read-out: TLR7 EC50): 28.2 nM
SMILES: CCc1nc2c(N)nc3ccccc3c2n1CCCCNC(=O)/C=C/c1ccc(N(C)C)cc1 [AXC-739, (E)-N-(4-(4-amino-2-ethyl-1H-imidazo[4,5-c]quinolin-1-yl)butyl)-3-(4-(dimethylamino)phenyl)acrylamide]
